In assay [1] the target is T1, Keap1 Kelch domain (Homo sapiens, UniProt Q14145). Briefly: SPR-based solution competition assay. The arrangement: 40 nM of Keap1 Kelch domain was incubated in the presence of test compounds; inferred from vector pET15b and Ni-NTA purification of the one described Kelch preparation) (N); made in house; host or cells: E. coli BL21 (DE3). The format is binding.
Assay [2] has as its target T1, Keap1 Kelch domain. Briefly: FP assay, dose-response retest of HTS hits. The format is binding. The arrangement: Human Keap1 Kelch domain protein was cloned into expression vector pET15b; inferred from vector pET15b and Ni-NTA purification) (N); made in house; host or cells: E. coli BL21 (DE3). Here is the method: Human Keap1 Kelch domain protein was cloned into expression vector pET15b and transformed into E. coli BL21 (DE3) strain. The protein was purified through Ni-NTA affinity column. Purified protein was stored in the buffer containing 20 mM HEPES (pH7.4), 5 mM DTT at −80° C.
2) 60 mL of 8 μM Ac-9mer-Nrf2 was prepared by taking 0.48 mL of 1 mM Ac-9mer-Nrf2 in 100% DMSO in 60 mL FP buffer 3) 500 mL of 400 nM Keap1 Kelch domain was prepared by taking 9 mL of 0.75 mg/mL Keap1 Kelch domain in 500 mL FP buffer.
10 nM FITC-9mer-Nrf2-NH2, 100 nM Kelch Kelch domain.
The first of these assays is an FP assay that uses a fluorescently labeled Nrf2 peptide amide as the probe and directly measures the displacement of fluorescent probe from the Nrf2-binding site of Keap1 Kelch domain by inhibitors via changes in fluorescence anisotropy. […] The second of the fluorescence-based assays is a time-resolved fluorescence energy transfer (TR-FRET) assay which uses an in situ labeling method we recently developed to attach a lanthanide chelate to Keap1 Kelch domain as the FRET donor and fluorescein-labeled Nrf2 peptide as the acceptor. One advantage of the TR-FRET assay is that it is less susceptible to compound interference than an FP assay.

Assay [3] deals with CellSensor® ARE-bla Hep G2 cell line. In words: cell-based ARE β-lactamase reporter assay. The arrangement: species or system human. On the technique in general: In a reporter assay the amount or activity of a reporter protein is the signal.
Setting [4] is: Keap1-retest in dose, 8-point FP dose-response of HTS hits.

T1 sequence (Q14145 321-609 limits assumed): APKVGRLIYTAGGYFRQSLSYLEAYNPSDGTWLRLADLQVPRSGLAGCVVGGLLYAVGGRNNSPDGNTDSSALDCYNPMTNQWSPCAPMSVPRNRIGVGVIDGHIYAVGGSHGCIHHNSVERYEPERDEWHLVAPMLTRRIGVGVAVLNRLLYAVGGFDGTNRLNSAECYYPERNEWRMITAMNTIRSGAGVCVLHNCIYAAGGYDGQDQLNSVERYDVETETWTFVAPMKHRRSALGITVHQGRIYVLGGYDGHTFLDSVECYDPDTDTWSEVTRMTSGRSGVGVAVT

In the case of `O=C(O)[C@H]1CCCC[C@H]1C(=O)N1CCCCC1CN1C(=O)c2ccccc2C1=O` (relative stereo) [LH641, cis-2-(2-((1,3-dioxoisoindolin-2-yl)methyl)piperidine-1-carbonyl)cyclohexane carboxylic acid], the “binding to Keap1 Kelch domain (in words)” value in assay [1] is on record as “complete loss of binding”.

With `COc1ccc(C(C)=NNc2ccc([N+](=O)[O-])cc2S(=O)(=O)Nc2ccccc2C(=O)O)c(OC)c1` [BRD-K09114961-001-03-6, 2-[[[2-[2-[1-(2,4-dimethoxyphenyl)ethylidene]hydrazinyl]-5-nitrophenyl]sulfonyl]amino] benzoic acid], 26 µM corresponded to half-maximal inhibition in assay [2] (setting [4]) (IC50).

On to `O=C(O)c1cc(N2C(=O)C=CC2=O)cc(N2C(=O)C=CC2=O)c1` [BRD-K11951445-001-04-1, 3,5-Bis(2,5-dihydro-2,5-dioxo-1H-pyrrol-1-yl)-benzoic acid], for which the half-inhibitory concentration (IC50) in assay [2] (setting [4]) is 19 µM.

Molecule `NS(=O)(=O)c1cc(C(=O)NC2CCSc3ccccc32)ccc1Cl` (stereo not drawn) [BRD-A83249228-001-07-1, 3-(Aminosulfonyl)-4-chloro-N-(3,4-dihydro-2H-1-benzothiopyran-4-yl)benzamide] displayed an IC50 in assay [2] (setting [4]) of 135 µM.

For the molecule `Cc1ccc(S(=O)(=O)Nc2cc(C(C(=O)OC(C)C)C(=O)C(F)(F)F)c(O)c3ccccc23)c(C)c1` (racemic) [LH602, 4-[[(2,4-Dimethylphenyl)sulfonyl]amino]-1-hydroxy-α-(2,2,2-trifluoroacetyl)-2-naphthaleneacetic acid, 1-methylethyl ester], the concentration giving a half-maximal response (EC50) in assay [3] (Homo sapiens, HepG2, read-out: EC50 of ARE-inducing activity) was in the range of 16 to 18 µM. For the same molecule, the half-maximal inhibitory concentration (IC50) was 2.7 µM in assay [2] (setting [4]) and 3 µM in assay [2] (resynthesized compound). Also, the equilibrium dissociation constant (Kd) in assay [1] (Keap1 Kelch domain, SPR, read-out: Kd (Keap1 binding affinity)) came to 1.7 µM.

With `CC1=C[C@@H]2c3cccc4[nH]cc(c34)C[C@H]2N(C)C1` [BRD-K56215778-001-06-9, 8,9-Didehydro-6,8-dimethyl-ergoline], half-maximal inhibition in assay [2] (setting [4]) (IC50) was put at 37 µM.

`O=C1CCCc2oc3c(cc(NS(=O)(=O)c4ccc5c6c(cccc46)C(=O)N5)c4ccccc43)c21` [BRD-K91732811-001-06-9, 1,2-Dihydro-2-oxo-N-(7,8,9,10-tetrahydro-7-oxobenzo[b]naphtho[2,1-d]furan-5-yl) benz[cd]indole-6-sulfonamide] gave an IC50 in assay [2] (setting [4]) of 55 µM.

In assay [2] (setting [4]), `COc1cc(NS(=O)(=O)c2ccc(NC(=S)NC(=O)/C=C/c3ccco3)cc2)ncn1` [BRD-K42553821-001-05-9, 3-(2-Furanyl)-N-[[[4-[[(6-methoxy-4-pyrimidinyl)amino]sulfonyl]phenyl]amino]-thioxomethyl]-2-Propenamide] gave an IC50 of 91 µM.

Turning to `O=C(O)[C@@H]1CCCC[C@@H]1C(=O)N1CCc2ccccc2C1CN1C(=O)c2ccccc2C1=O` (relative stereo) [LH601C/D], in assay [3], the “ARE-inducing activity (in words)” value is “inactive”.

As a reminder, the IC50 is the point on the concentration scale where inhibition reaches its midpoint. Read a high IC50 as lower potency. One may read the EC50 as the concentration that produces a half-maximal response. The term Kd denotes the equilibrium constant for the complex coming apart.

These data come from US10106502B2, “Direct inhibitors of Keap1-Nrf2 interaction as antioxidant inflammation modulators” (Rutgers, The State University of New Jersey, priority 2011, dated 2018).
